# Measured values as given in PubChem BioAssay AID248 (DTP/NCI, 2004).
# Values joined by “and” are separate entries in the source; they are usually repeats but may differ in a detail not shown here. Identical values can stand only once. Toxic doses and inconclusive results are not listed.
# Test system: L1210 leukemia ip in BDF1 mice, survival T/C
# Assay: NCI In Vivo Anticancer Drug Screen. Data for tumor model L1210 Leukemia (intraperitoneal) in B6D2F1 (BDF1) mice
# Conditions: endpoint: mean survival time, higher = longer survival
# How it was run: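 Antitumor effect is assessed in tumor-bearing animals. Survival in the compound arm is compared with a vehicle-dosed control arm and expressed as their quotient.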
# [1] = dose: 50.0 mg/kg/injection, schedule: Q04DX003 (ip), vehicle: Klucel (hydroxypropylcellulose) (HPC)
# [2] = dose: 100.0 mg/kg/injection, schedule: Q04DX003 (ip), vehicle: Klucel (hydroxypropylcellulose) (HPC)
# [3] = dose: 200.0 mg/kg/injection, schedule: Q04DX003 (ip), vehicle: Klucel (hydroxypropylcellulose) (HPC)
# [4] = dose: 100.0 mg/kg/injection, schedule: Q01DX001 (ip), vehicle: saline
# [5] = dose: 100.0 mg/kg/injection, schedule: Q01DX009 (ip), vehicle: saline with Tween-80
# [6] = dose: 100.0 mg/kg/injection, schedule: Q04DX003 (ip), vehicle: saline
# [7] = dose: 200.0 mg/kg/injection, schedule: Q01DX001 (ip), vehicle: saline
# [8] = dose: 200.0 mg/kg/injection, schedule: Q01DX009 (ip), vehicle: saline with Tween-80
# [9] = dose: 200.0 mg/kg/injection, schedule: Q04DX003 (ip), vehicle: saline
# [10] = dose: 400.0 mg/kg/injection, schedule: Q01DX009 (ip), vehicle: saline with Tween-80
# [11] = dose: 25.0 mg/kg/injection, schedule: Q01DX009 (ip), vehicle: saline
# [12] = dose: 50.0 mg/kg/injection, schedule: Q01DX009 (ip), vehicle: saline
# [13] = dose: 100.0 mg/kg/injection, schedule: Q04DX003 (ip), vehicle: saline with Tween-80
# [14] = dose: 200.0 mg/kg/injection, schedule: Q04DX003 (ip), vehicle: saline with Tween-80
# [15] = dose: 100.0 mg/kg/injection, schedule: Q04DX002 (ip), vehicle: gum acacia
# [16] = dose: 200.0 mg/kg/injection, schedule: Q04DX002 (ip), vehicle: gum acacia
# [17] = dose: 400.0 mg/kg/injection, schedule: Q04DX002 (ip), vehicle: gum acacia
# [18] = dose: 400.0 mg/kg/injection, schedule: Q04DX003 (ip), vehicle: Klucel (hydroxypropylcellulose) (HPC)
# [19] = dose: 100.0 mg/kg/injection, schedule: Q04DX002 (ip), vehicle: saline with Tween-80
# [20] = dose: 200.0 mg/kg/injection, schedule: Q04DX002 (ip), vehicle: saline with Tween-80
# [21] = dose: 400.0 mg/kg/injection, schedule: Q04DX002 (ip), vehicle: saline with Tween-80
structure (smiles),measurement,setting,value
C1=CC23C4CCC2C2C4C4C(=C1)C3C2N1CCCCC41 (stereo not drawn),T/C,"dose: 12.5 mg/kg/injection, schedule: Q04DX003 (ip), vehicle: Klucel (hydroxypropylcellulose) (HPC)",98 % of control
same,T/C,"dose: 25.0 mg/kg/injection, schedule: Q01DX009 (ip), vehicle: Klucel (hydroxypropylcellulose) (HPC)",105 % of control
same,T/C,"dose: 25.0 mg/kg/injection, schedule: Q04DX003 (ip), vehicle: Klucel (hydroxypropylcellulose) (HPC)",104 % of control
same,T/C,"dose: 50.0 mg/kg/injection, schedule: Q01DX009 (ip), vehicle: Klucel (hydroxypropylcellulose) (HPC)",103 % of control
same,T/C,[1],96 % of control
same,T/C,[2],107 % of control
O=[N+]([O-])c1ccc(Cl)c(OCCCCOc2ccc(S(=O)(=O)F)cc2)c1,T/C,[2],90 % of control
same,T/C,[3],94 % of control
COc1ccc(Cl)cc1NC(=O)Nc1c(C)n(C)n(-c2ccccc2)c1=O,T/C,[4],90 % of control
same,T/C,[5],89 % of control
same,T/C,[6],97 % of control
same,T/C,[7],89 % of control
same,T/C,[8],89 % of control
same,T/C,[9],101 % of control
same,T/C,"dose: 400.0 mg/kg/injection, schedule: Q01DX001 (ip), vehicle: saline",94 % of control
same,T/C,[10],87 % of control
same,T/C,"dose: 400.0 mg/kg/injection, schedule: Q04DX003 (ip), vehicle: saline",92 % of control
Cn1c(=O)cc(C=Nc2ccc(O)cc2)c2ccccc21,T/C,[4],94 % of control
same,T/C,[7],98 % of control
O=C(O)c1cccnn1,T/C,[4],104 % of control
same,T/C,[7],97 % of control
CCCCCNC(C)C(=O)c1ccccc1 (stereo not drawn),T/C,"dose: 12.5 mg/kg/injection, schedule: Q04DX003 (ip), vehicle: saline",87 % of control
same,T/C,[11],92 % of control
same,T/C,"dose: 25.0 mg/kg/injection, schedule: Q04DX003 (ip), vehicle: saline",94 % of control
same,T/C,[12],100 % of control
same,T/C,"dose: 50.0 mg/kg/injection, schedule: Q04DX003 (ip), vehicle: saline",94 % of control
same,T/C,[6],97 % of control
CCCCOCN1COCC1(C)C,T/C,[13],108 % of control
same,T/C,[14],106 % of control
Nc1c(Cl)c(Cl)c2c(c1Cl)/C(=N/O)c1cc(Cl)ccc1-2,T/C,"dose: 100.0 mg/kg/injection, schedule: Q01DX001 (ip), vehicle: carboxymethylcellulose (CMC)",95 % of control
same,T/C,"dose: 200.0 mg/kg/injection, schedule: Q01DX001 (ip), vehicle: carboxymethylcellulose (CMC)",95 % of control
same,T/C,"dose: 400.0 mg/kg/injection, schedule: Q01DX001 (ip), vehicle: carboxymethylcellulose (CMC)",103 % of control
C[n+]1ccc(Nc2ccc(NC(=O)c3ccc(Nc4cc[n+](C)c5ccc([N+](=O)[O-])cc45)cc3[N+](=O)[O-])cc2)cc1,T/C,"dose: 12.5 mg/kg/injection, schedule: Q01DX009 (ip), vehicle: saline",112 % of control
same,T/C,"dose: 25.0 mg/kg/injection, schedule: Q01DX001 (ip), vehicle: saline",105 % of control
same,T/C,[11],117 % of control
same,T/C,"dose: 25.0 mg/kg/injection, schedule: Q04DX003 (ip), vehicle: suspension in saline",111 % of control
same,T/C,"dose: 50.0 mg/kg/injection, schedule: Q01DX001 (ip), vehicle: saline",98 % of control
same,T/C,[12],120 % of control
same,T/C,"dose: 50.0 mg/kg/injection, schedule: Q04DX003 (ip), vehicle: suspension in saline",116 % of control
same,T/C,[4],105 % of control
same,T/C,"dose: 100.0 mg/kg/injection, schedule: Q01DX001 (ip), vehicle: suspension in saline",114 % of control
same,T/C,[6],105 % of control and 104 % of control
same,T/C,[9],120 % of control and 123 % of control
same,T/C,"dose: 200.0 mg/kg/injection, schedule: Q04DX003 (ip), vehicle: suspension in saline",190 % of control and 203 % of control
same,T/C,"dose: 400.0 mg/kg/injection, schedule: Q01DX001 (ip), vehicle: suspension in saline",173 % of control and 206 % of control
same,T/C,"dose: 400.0 mg/kg/injection, schedule: Q04DX003 (ip), vehicle: suspension in saline",90 % of control
same,T/C,"dose: 600.0 mg/kg/injection, schedule: Q04DX003 (ip), vehicle: saline",119 % of control
same,T/C,"dose: 800.0 mg/kg/injection, schedule: Q04DX002 (ip), vehicle: saline",102 % of control and 108 % of control
CN(N=O)C(=O)NCc1ccc(Cl)cc1,T/C,"dose: 9.0 mg/kg/injection, schedule: Q01DX Z (ip), vehicle: carboxymethylcellulose (CMC)",108 % of control
same,T/C,"dose: 18.0 mg/kg/injection, schedule: Q01DX Z (ip), vehicle: carboxymethylcellulose (CMC)",91 % of control
same,T/C,"dose: 37.0 mg/kg/injection, schedule: Q01DX Z (ip), vehicle: carboxymethylcellulose (CMC)",101 % of control
same,T/C,"dose: 75.0 mg/kg/injection, schedule: Q01DX Z (ip), vehicle: carboxymethylcellulose (CMC)",111 % of control
same,T/C,"dose: 100.0 mg/kg/injection, schedule: Q01DX Z (ip), vehicle: carboxymethylcellulose (CMC)",109 % of control
same,T/C,"dose: 150.0 mg/kg/injection, schedule: Q01DX Z (ip), vehicle: carboxymethylcellulose (CMC)",118 % of control
same,T/C,"dose: 200.0 mg/kg/injection, schedule: Q01DX Z (ip), vehicle: carboxymethylcellulose (CMC)",119 % of control
Nc1ccc(I)c(Cl)c1Cl,T/C,[5],110 % of control
same,T/C,[8],108 % of control
same,T/C,[10],102 % of control
COc1ccc(OC)c(/C=N\NC(=O)c2ccccc2N(C)C)c1,T/C,[15],100 % of control
same,T/C,[16],90 % of control
same,T/C,[17],103 % of control
COc1ccc(OC)c(/C=C/C(=O)c2ccc(Cl)cc2)c1,T/C,[2],94 % of control
same,T/C,[3],94 % of control
same,T/C,[18],97 % of control
CCCC(=O)N1CCCC1,T/C,"dose: 100.0 mg/kg/injection, schedule: Q04DX002 (ip), vehicle: saline",107 % of control
same,T/C,"dose: 200.0 mg/kg/injection, schedule: Q04DX002 (ip), vehicle: saline",103 % of control
same,T/C,"dose: 400.0 mg/kg/injection, schedule: Q04DX002 (ip), vehicle: saline",111 % of control
O=[N+]([O-])c1ccc(/C([O-])=C(\C(=S)Nc2ccccc2Cl)[n+]2ccccc2)cc1,T/C,[19],96 % of control
same,T/C,[20],89 % of control
same,T/C,[21],96 % of control
CC(=O)Oc1cccc(/C=C/C(=O)O)c1,T/C,[5],91 % of control
same,T/C,[13],98 % of control
same,T/C,[8],91 % of control
same,T/C,[14],102 % of control
same,T/C,[10],90 % of control
same,T/C,"dose: 400.0 mg/kg/injection, schedule: Q04DX003 (ip), vehicle: saline with Tween-80",91 % of control
O=C(O)CSC(SCC(=O)O)c1ccccc1,T/C,[1],108 % of control
same,T/C,[2],107 % of control
same,T/C,[3],100 % of control
same,T/C,[18],110 % of control
CC(C)OC(=O)C1OC1c1ccccc1 (stereo not drawn),T/C,[19],109 % of control
same,T/C,[20],102 % of control
same,T/C,[21],109 % of control
O=C(CSc1ccc(Cl)cc1)Nc1ccccc1,T/C,[15],92 % of control
same,T/C,[16],87 % of control
same,T/C,[17],89 % of control
CC(=O)N1C(=O)C(Cl)C(Cl)C(=O)N1C(C)=O (stereo not drawn),T/C,[2],89 % of control
same,T/C,[3],89 % of control
CN(CCN(C)CP(c1ccccc1)c1ccccc1)CP(c1ccccc1)c1ccccc1,T/C,"dose: 100.0 mg/kg/injection, schedule: Q04DX002 (sc), vehicle: olive oil, sesame oil, peanut oil",96 % of control
same,T/C,"dose: 200.0 mg/kg/injection, schedule: Q04DX002 (sc), vehicle: olive oil, sesame oil, peanut oil",104 % of control
same,T/C,"dose: 400.0 mg/kg/injection, schedule: Q04DX002 (sc), vehicle: olive oil, sesame oil, peanut oil",110 % of control
CCCCCCC[n+]1cccc(C#N)c1,T/C,"dose: 37.5 mg/kg/injection, schedule: Q04DX003 (ip), vehicle: saline",96 % of control
same,T/C,"dose: 75.0 mg/kg/injection, schedule: Q01DX001 (ip), vehicle: saline",96 % of control
same,T/C,"dose: 75.0 mg/kg/injection, schedule: Q04DX003 (ip), vehicle: saline",98 % of control
same,T/C,"dose: 150.0 mg/kg/injection, schedule: Q01DX001 (ip), vehicle: saline",100 % of control
same,T/C,"dose: 150.0 mg/kg/injection, schedule: Q04DX003 (ip), vehicle: saline",95 % of control
Cc1cc(NC(=O)Nc2ccc(C3=NCCN3)cc2)ccc1NC(=O)Nc1ccc(C2=NCCN2)cc1,T/C,"dose: 62.0 mg/kg/injection, schedule: Q01DX Z (ip), vehicle: carboxymethylcellulose (CMC)",124 % of control
same,T/C,"dose: 250.0 mg/kg/injection, schedule: Q01DX Z (ip), vehicle: carboxymethylcellulose (CMC)",151 % of control
